Source: PubChem BioAssay (NCI)
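Compound exposure: 48 hours, 5 concentrations, 96-well plates. At the GI50, growth is halved. TGI: concentration producing complete growth inhibition.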

Legend:
Assay in all cases: NCI tumour cell line growth inhibition, 48 h
786-0 renal = test system: 786-0 renal
A498 renal = test system: A498 renal
A549 NSCLC = test system: A549 NSCLC
ACHN renal = test system: ACHN renal
BT-549 breast = test system: BT-549 breast
CAKI-1 renal = test system: CAKI-1 renal
CCRF-CEM leukemia = test system: CCRF-CEM leukemia
COLO 205 colon = test system: COLO 205 colon
DU-145 prostate = test system: DU-145 prostate
EKVX NSCLC = test system: EKVX NSCLC
HCC-2998 colon = test system: HCC-2998 colon
HCT-116 colon = test system: HCT-116 colon
HCT-15 colon = test system: HCT-15 colon
HL-60(TB) leukemia = test system: HL-60(TB) leukemia
HOP-62 NSCLC = test system: HOP-62 NSCLC
HOP-92 NSCLC = test system: HOP-92 NSCLC
HS 578T breast = test system: HS 578T breast
HT29 colon = test system: HT29 colon
IGROV1 ovarian = test system: IGROV1 ovarian
K-562 leukemia = test system: K-562 leukemia
KM12 colon = test system: KM12 colon
LOX IMVI melanoma = test system: LOX IMVI melanoma
M14 melanoma = test system: M14 melanoma
MALME-3M melanoma = test system: MALME-3M melanoma
MCF7 breast = test system: MCF7 breast
MDA-MB-231 breast = test system: MDA-MB-231 breast
MDA-MB-435 = test system: MDA-MB-435
MOLT-4 leukemia = test system: MOLT-4 leukemia
NCI-H226 lung = test system: NCI-H226 lung
NCI-H23 lung = test system: NCI-H23 lung
NCI-H460 lung = test system: NCI-H460 lung
NCI-H522 lung = test system: NCI-H522 lung
NCI/ADR-RES ovarian = test system: NCI/ADR-RES ovarian
OVCAR-3 ovarian = test system: OVCAR-3 ovarian
OVCAR-4 ovarian = test system: OVCAR-4 ovarian
OVCAR-5 ovarian = test system: OVCAR-5 ovarian
OVCAR-8 ovarian = test system: OVCAR-8 ovarian
PC-3 prostate = test system: PC-3 prostate
RPMI-8226 leukemia = test system: RPMI-8226 leukemia
RXF 393 renal = test system: RXF 393 renal
SF-268 CNS = test system: SF-268 CNS
SF-295 CNS = test system: SF-295 CNS
SF-539 CNS = test system: SF-539 CNS
SK-MEL-2 melanoma = test system: SK-MEL-2 melanoma
SK-MEL-28 melanoma = test system: SK-MEL-28 melanoma
SK-MEL-5 melanoma = test system: SK-MEL-5 melanoma
SK-OV-3 ovarian = test system: SK-OV-3 ovarian
SN12C renal = test system: SN12C renal
SNB-19 CNS = test system: SNB-19 CNS
SNB-75 CNS = test system: SNB-75 CNS
SR leukemia = test system: SR leukemia
SW-620 colon = test system: SW-620 colon
T-47D breast = test system: T-47D breast
TK-10 renal = test system: TK-10 renal
U251 CNS = test system: U251 CNS
UACC-257 melanoma = test system: UACC-257 melanoma
UACC-62 melanoma = test system: UACC-62 melanoma
UO-31 renal = test system: UO-31 renal

CN1CCN(c2ccc3nc(-c4[nH]ncc4Nc4ncnc5[nH]ccc45)[nH]c3c2)CC1
GI50 (786-0 renal): 387 nM
TGI (786-0 renal): 2210 nM
GI50 (A498 renal): 253 nM
TGI (A498 renal): 588 nM
GI50 (A549 NSCLC): 1740 nM
TGI (A549 NSCLC): 15000 nM
GI50 (ACHN renal): 394 nM
TGI (ACHN renal): 7660 nM
GI50 (BT-549 breast): 222 nM
TGI (BT-549 breast): 816 nM
GI50 (CAKI-1 renal): 183 nM
TGI (CAKI-1 renal): 1570 nM
GI50 (CCRF-CEM leukemia): 171 nM
TGI (CCRF-CEM leukemia): 22300 nM
GI50 (COLO 205 colon): 147 nM
TGI (COLO 205 colon): 695 nM
GI50 (DU-145 prostate): 362 nM
TGI (DU-145 prostate): 22700 nM
GI50 (EKVX NSCLC): 340 nM
TGI (EKVX NSCLC): 14200 nM
GI50 (HCC-2998 colon): 375 nM
TGI (HCC-2998 colon): 4520 nM
GI50 (HCT-116 colon): 66.5 nM
GI50 (HCT-15 colon): 1380 nM
TGI (HCT-15 colon): 13300 nM
GI50 (HL-60(TB) leukemia): 285 nM
TGI (HL-60(TB) leukemia): 686 nM
GI50 (HOP-62 NSCLC): 381 nM
TGI (HOP-62 NSCLC): 4060 nM
GI50 (HOP-92 NSCLC): 149 nM
TGI (HOP-92 NSCLC): 535 nM
GI50 (HS 578T breast): 216 nM
TGI (HS 578T breast): 2030 nM
GI50 (HT29 colon): 1470 nM
TGI (HT29 colon): 6060 nM
GI50 (IGROV1 ovarian): 189 nM
TGI (IGROV1 ovarian): 1410 nM
GI50 (K-562 leukemia): 299 nM
TGI (K-562 leukemia): > 100000 nM
GI50 (KM12 colon): 517 nM
TGI (KM12 colon): 11600 nM
GI50 (LOX IMVI melanoma): 148 nM
TGI (LOX IMVI melanoma): 906 nM
GI50 (M14 melanoma): 377 nM
TGI (M14 melanoma): 1840 nM
GI50 (MALME-3M melanoma): 379 nM
TGI (MALME-3M melanoma): 2640 nM
GI50 (MCF7 breast): 293 nM
TGI (MCF7 breast): 11200 nM
GI50 (MDA-MB-231 breast): 184 nM
TGI (MDA-MB-231 breast): 801 nM
GI50 (MDA-MB-435): 303 nM
TGI (MDA-MB-435): 1610 nM
GI50 (MOLT-4 leukemia): 429 nM
TGI (MOLT-4 leukemia): 14400 nM
GI50 (NCI-H226 lung): 212 nM
TGI (NCI-H226 lung): 1010 nM
GI50 (NCI-H23 lung): 517 nM
TGI (NCI-H23 lung): 4060 nM
GI50 (NCI-H460 lung): 2680 nM
TGI (NCI-H460 lung): 9780 nM
GI50 (NCI-H522 lung): 196 nM
TGI (NCI-H522 lung): 805 nM
GI50 (NCI/ADR-RES ovarian): 5240 nM
TGI (NCI/ADR-RES ovarian): > 100000 nM
GI50 (OVCAR-3 ovarian): 233 nM
TGI (OVCAR-3 ovarian): 759 nM
GI50 (OVCAR-4 ovarian): 343 nM
TGI (OVCAR-4 ovarian): 2130 nM
GI50 (OVCAR-5 ovarian): 418 nM
TGI (OVCAR-5 ovarian): 9190 nM
GI50 (OVCAR-8 ovarian): 381 nM
TGI (OVCAR-8 ovarian): > 31100 nM
GI50 (PC-3 prostate): 222 nM
TGI (PC-3 prostate): 3540 nM
GI50 (RPMI-8226 leukemia): 5920 nM
TGI (RPMI-8226 leukemia): 19300 nM
GI50 (RXF 393 renal): 177 nM
TGI (RXF 393 renal): 397 nM
GI50 (SF-268 CNS): 250 nM
TGI (SF-268 CNS): 803 nM
GI50 (SF-295 CNS): 867 nM
TGI (SF-295 CNS): 3180 nM
GI50 (SF-539 CNS): 176 nM
TGI (SF-539 CNS): 496 nM
GI50 (SK-MEL-2 melanoma): 390 nM
TGI (SK-MEL-2 melanoma): 1910 nM
GI50 (SK-MEL-28 melanoma): 309 nM
TGI (SK-MEL-28 melanoma): 1750 nM
GI50 (SK-MEL-5 melanoma): 367 nM
TGI (SK-MEL-5 melanoma): 2150 nM
GI50 (SK-OV-3 ovarian): 371 nM
TGI (SK-OV-3 ovarian): 12700 nM
GI50 (SN12C renal): 358 nM
TGI (SN12C renal): 5710 nM
GI50 (SNB-19 CNS): 349 nM
TGI (SNB-19 CNS): 3880 nM
GI50 (SNB-75 CNS): 116 nM
TGI (SNB-75 CNS): 574 nM
GI50 (SR leukemia): 47.2 nM
GI50 (SW-620 colon): 312 nM
TGI (SW-620 colon): 3470 nM
GI50 (T-47D breast): 320 nM
TGI (T-47D breast): > 52400 nM
GI50 (TK-10 renal): 1110 nM
TGI (TK-10 renal): 3320 nM
GI50 (U251 CNS): 234 nM
TGI (U251 CNS): 11400 nM
GI50 (UACC-257 melanoma): 571 nM
TGI (UACC-257 melanoma): 20400 nM
GI50 (UACC-62 melanoma): 241 nM
TGI (UACC-62 melanoma): 1560 nM
GI50 (UO-31 renal): 558 nM
TGI (UO-31 renal): 2570 nM
